Measured values published in patent publication US20080206367A1, “Morinda Citrifolia-based Formulations and Methods for Weight Management” (priority 2004, published 2008).

Target: T1, CCK1 receptor (Rattus norvegicus, UniProt P30551)
T1 construct: from tissue; host or cells: live male rats (in vivo; gastrointestinal tract)
T1 sequence (P30551 1-444): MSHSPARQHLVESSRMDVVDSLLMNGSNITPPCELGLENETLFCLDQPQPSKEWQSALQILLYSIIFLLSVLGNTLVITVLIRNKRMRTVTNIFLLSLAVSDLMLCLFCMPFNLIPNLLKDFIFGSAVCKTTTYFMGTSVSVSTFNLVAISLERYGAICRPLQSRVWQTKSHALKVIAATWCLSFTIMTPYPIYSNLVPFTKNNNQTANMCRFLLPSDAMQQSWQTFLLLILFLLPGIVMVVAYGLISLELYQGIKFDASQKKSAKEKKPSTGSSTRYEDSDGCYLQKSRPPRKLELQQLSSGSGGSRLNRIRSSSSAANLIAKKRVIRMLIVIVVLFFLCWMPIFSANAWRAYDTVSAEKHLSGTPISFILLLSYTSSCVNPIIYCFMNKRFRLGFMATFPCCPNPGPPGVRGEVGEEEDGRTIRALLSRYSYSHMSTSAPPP
Assay: Effects of lorglumide on noni-mediated inhibition of gastric emptying and intestinal transit
Type: in vivo
Conditions: lorglumide i.p. 15 min before test meal, rats given noni 1 ml/kg orally for 7 days
Description: Male rats were divided into four groups and fasted for 24 h before use. Fifteen min before gastric intubation of a non-nutrient liquid meal, the animals were injected i.p. with the following compounds in 1 ml/kg: group 1 received dimethyl sulfoxide (DMSO), […], respectively. Groups 2-4 received 1 ml/kg of noni orally once daily for 7 days.
Gastric emptying and intestinal transit were measured. Rats were intubated via a catheter with physiological saline (3 ml/kg) containing Na2^51CrO4 (0.5 μCi/ml) and 10% charcoal. The test meal was continuously stirred before intubation. Air (0.5 ml) was injected to flush the residual charcoal suspension in the catheter into rat stomach. Fifteen minutes later, the rats were decapitated and the stomach with the attached small intestine was immediately exposed by laparotomy. […] The small intestine was then divided into ten equal segments, and the radioactivity in the stomach and each segment of small intestine was measured in an automatic gamma counter. Gastric emptying was measured by determining the amount of labeled chromium contained in the small intestine fifteen minutes after intubation, expressed as a percentage of the amount given. Intestinal transit was assessed by calculating the geometric center of distribution of the radioactivity within the 10 segments by summation of the radioactivity in each segment multiplied by the segment number.

Noni-induced inhibition of intestinal transit: not altered | Noni-induced inhibition of gastric emptying (P<0.01): significantly prevented
SMILES: CCCCCN(CCCCC)C(=O)C(CCC(=O)O)NC(=O)c1ccc(Cl)c(Cl)c1 (centres unmarked) [lorglumide]
